# Measured values reported in EP4273147A1, “SUBSTITUTED SPIROLACTAMS, SALTS THEREOF AND THEIR USE AS HERBICIDALLY ACTIVE SUBSTANCES” (Bayer Aktiengesellschaft, priority 2022, dated 2023).
# Columns and labels:
# SETVI [1] = test: Herbicidal pre-emergence action (Table A5); type: in vivo, Setaria viridis; conditions: application rate 320 g/ha; visual grading after ca. 3 weeks
# How it was run: (§1)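 Two-species sowings per pot, mono- plus dicotyledonous weeds; soil type sandy loam, seed covered after sowing.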
# POAAN [2] = test: Herbicidal post-emergence action (Table B7); type: in vivo, Poa annua; conditions: application rate 1280 g/ha
# How it was run: (§2)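 Percent herbicidal activity scored visually versus untreated controls, with 100% meaning dead plants. Scoring took place ~3 weeks after post-emergence treatment of one-leaf-stage weeds grown in sandy loam pots in a greenhouse.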
# LOLRI [3] = test: Herbicidal pre-emergence action (Table A3); type: in vivo, Lolium rigidum; conditions: application rate 320 g/ha; visual grading after ca. 3 weeks
# How it was run: as §1
# LOLRI [4] = test: Herbicidal post-emergence action (Table B5); type: in vivo, Lolium rigidum; conditions: application rate 1280 g/ha; rated visually after about 3 weeks
# How it was run: as §2
# ECHCG [5] = test: Herbicidal post-emergence action, section E (Table E5); type: in vivo, Echinochloa crus-galli; conditions: application rate 320 g/ha; assessed visually after ca. 3 weeks
# Description: (§3) 2 to 3 weeks after sowing, the test plants were sprayed in the single-leaf stage.
# TRZAS [6] = test: Pre-emergence effects on crop plants (Table D2); type: in vivo, Triticum aestivum; conditions: crop plant; application rate 320 g/ha; visual grading after ca. 3 weeks
# ECHCG [7] = test: Herbicidal pre-emergence action, section C (Table C6); type: in vivo, Echinochloa crus-galli; conditions: application rate 80 g/ha; visual grading after ca. 3 weeks
# VIOTR = test: Herbicidal pre-emergence action, section C (Table C12); type: in vivo, Viola tricolor; conditions: application rate 80 g/ha; visual grading after ca. 3 weeks
# VERPE [8] = test: Herbicidal post-emergence action (Table B10); type: in vivo, Veronica persica; conditions: application rate 1280 g/ha
# How it was run: as §2
# MATIN [9] = test: Herbicidal post-emergence action (Table B6); type: in vivo, Matricaria inodora; conditions: application rate 1280 g/ha; rated visually after about 3 weeks
# How it was run: as §2
# SETVI [10] = test: Herbicidal pre-emergence action, section C (Table C10); type: in vivo, Setaria viridis; conditions: application rate 320 g/ha; visual grading after ca. 3 weeks
# Description: Seeds of mono- and dicotyledonous weed plants and crop plants were sown, in plastic or organic planting pots, in sandy loam and covered with soil. The compounds according to the invention, formulated in the form of wettable powders (WP) or as emulsifiable concentrates (EC), were applied to the surface of the covering soil as aqueous suspension or emulsion, with the addition of 0.5% of an additive, at an application rate of 600 1 of water/ha (converted). Following treatment, the pots were placed in a greenhouse and kept under optimum growth conditions for the test plants.
# TRZAS [11] = test: Post-emergence effects on crop plants (Table F2); type: in vivo, Triticum aestivum; conditions: application rate 320 g/ha, crop plant TRZAS
# Description: as §3
# ORYZA = test: Post-emergence effects on crop plants (Table F3); type: in vivo, Oryza sativa; conditions: application rate 320 g/ha, crop plant ORYZA
# Description: as §3
# VERPE [12] = test: Herbicidal pre-emergence action, section C (Table C11); type: in vivo, Veronica persica; conditions: application rate 80 g/ha; visual grading after ca. 3 weeks
# DIGSA [13] = test: Herbicidal pre-emergence action (Table A12); type: in vivo, Digitaria sanguinalis; conditions: application rate 1280 g/ha; visual grading after ca. 3 weeks
# How it was run: as §1
# POAAN [14] = test: Herbicidal pre-emergence action (Table A7); type: in vivo, Poa annua; conditions: application rate 320 g/ha; visual grading after ca. 3 weeks
# How it was run: as §1
# ALOMY = test: Herbicidal pre-emergence action, section C (Table C2); type: in vivo, Alopecurus myosuroides; conditions: application rate 320 g/ha; visual grading after ca. 3 weeks
# AMARE = test: Herbicidal pre-emergence action (Table A8); type: in vivo, Amaranthus retroflexus; conditions: application rate 1280 g/ha; visual grading after ca. 3 weeks vs untreated controls (100% = plants have died off, 0% = as control plants)
# How it was run: as §1
# ABUTH [15] = test: Herbicidal post-emergence action (Table B1); type: in vivo, Abutilon theophrasti; conditions: application rate 1280 g/ha; treated at one-leaf stage; rated visually after about 3 weeks vs untreated controls (100% = plants have died, 0% = like control plants)
# How it was run: as §2
# MATIN [16] = test: Herbicidal pre-emergence action (Table A4); type: in vivo, Matricaria inodora; conditions: application rate 1280 g/ha; visual grading after ca. 3 weeks
# How it was run: as §1
# ECHCG [17] = test: Herbicidal pre-emergence action (Table A2); type: in vivo, Echinochloa crus-galli; conditions: application rate 320 g/ha; visual grading after ca. 3 weeks
# How it was run: as §1
# MATIN [18] = test: Herbicidal pre-emergence action, section C (Table C8); type: in vivo, Matricaria inodora; conditions: application rate 320 g/ha; visual grading after ca. 3 weeks
# DIGSA [19] = test: Herbicidal post-emergence action (Table B12); type: in vivo, Digitaria sanguinalis; conditions: application rate 1280 g/ha
# Description: Seeds of mono- and dicotyledonous weed plants were placed in plastic pots in sandy loam soil (doubly sown with in each case one species of mono- or dicotyledonous weed plants per pot), covered with soil and cultivated in a greenhouse under controlled growth conditions. 2 to 3 weeks after sowing, the test plants were treated at the one-leaf stage. […] After the test plants had been kept in the greenhouse under optimum growth conditions for about 3 weeks, the activity of the preparations was rated visually in comparison to untreated controls. For example, 100% activity = the plants have died, 0% activity = like control plants.
# ZEAMX [20] = test: Pre-emergence effects on crop plants (Table D1); type: in vivo, Zea mays; conditions: crop plant; application rate 320 g/ha; visual grading after ca. 3 weeks
# KCHSC = test: Herbicidal pre-emergence action (Table A10); type: in vivo, Kochia scoparia; conditions: application rate 320 g/ha; visual grading after ca. 3 weeks
# How it was run: as §1
# VERPE [21] = test: Herbicidal post-emergence action, section E (Table E9); type: in vivo, Veronica persica; conditions: application rate 320 g/ha; assessed visually after ca. 3 weeks
# Description: as §3
# ZEAMX [22] = test: Post-emergence effects on crop plants (Table F1); type: in vivo, Zea mays; conditions: application rate 320 g/ha, crop plant ZEAMX
# Description: as §3
# STEME = test: Herbicidal pre-emergence action (Table A6); type: in vivo, Stellaria media; conditions: application rate 320 g/ha; visual grading after ca. 3 weeks
# How it was run: as §1
# ABUTH [23] = test: Herbicidal post-emergence action, section E (Table E1); type: in vivo, Abutilon theophrasti; conditions: application rate 320 g/ha; assessed visually after ca. 3 weeks
# Description: as §3
# POLCO = test: Herbicidal pre-emergence action, section C (Table C9); type: in vivo, Polygonum convolvulus; conditions: application rate 320 g/ha; visual grading after ca. 3 weeks
# VERPE [24] = test: Herbicidal pre-emergence action (Table A11); type: in vivo, Veronica persica; conditions: application rate 1280 g/ha; visual grading after ca. 3 weeks
# How it was run: as §1
# LOLRI [25] = test: Herbicidal pre-emergence action, section C (Table C7); type: in vivo, Lolium rigidum; conditions: application rate 320 g/ha; visual grading after ca. 3 weeks
# DIGSA [26] = test: Herbicidal pre-emergence action, section C (Table C5); type: in vivo, Digitaria sanguinalis; conditions: application rate 320 g/ha; visual grading after ca. 3 weeks
# ECHCG [27] = test: Herbicidal post-emergence action (Table B3); type: in vivo, Echinochloa crus-galli; conditions: application rate 1280 g/ha; rated visually after about 3 weeks
# How it was run: as §2
smiles,measurement,setting,value
O=C1N(Cc2cccc(F)c2F)CCCC12CCN(Cc1cccc(F)c1F)C2=O (racemic) [I-025],pre-emergence activity against SETVI,SETVI [1],100%
same,post-emergence activity against POAAN,POAAN [2],90%
same,pre-emergence activity against LOLRI,LOLRI [3],100%
same,post-emergence activity against LOLRI,LOLRI [4],90%
same,post-emergence activity against ECHCG,ECHCG [5],80%
same,pre-emergence activity against TRZAS,TRZAS [6],10%
same,pre-emergence activity against ECHCG,ECHCG [7],100%
same,pre-emergence activity against VIOTR,VIOTR,90%
same,post-emergence activity against VERPE,VERPE [8],90%
same,post-emergence activity against MATIN,MATIN [9],90%
same,pre-emergence activity against SETVI,SETVI [10],90%
same,post-emergence activity against TRZAS,TRZAS [11],0%
same,post-emergence activity against ORYZA,ORYZA,0%
same,pre-emergence activity against VERPE,VERPE [12],90%
same,pre-emergence activity against DIGSA,DIGSA [13],100%
same,pre-emergence activity against POAAN,POAAN [14],100%
same,pre-emergence activity against ALOMY,ALOMY,100%
same,pre-emergence activity against AMARE,AMARE,90%
same,post-emergence activity against ABUTH,ABUTH [15],90%
same,pre-emergence activity against MATIN,MATIN [16],90%
same,pre-emergence activity against ECHCG,ECHCG [17],100%
same,pre-emergence activity against MATIN,MATIN [18],90%
same,post-emergence activity against DIGSA,DIGSA [19],90%
same,pre-emergence activity against ZEAMX,ZEAMX [20],0%
same,pre-emergence activity against KCHSC,KCHSC,90%
same,post-emergence activity against VERPE,VERPE [21],80%
same,post-emergence activity against ZEAMX,ZEAMX [22],0%
same,pre-emergence activity against STEME,STEME,90%
same,post-emergence activity against ABUTH,ABUTH [23],80%
same,pre-emergence activity against POLCO,POLCO,90%
same,pre-emergence activity against VERPE,VERPE [24],90%
same,pre-emergence activity against LOLRI,LOLRI [25],90%
same,pre-emergence activity against DIGSA,DIGSA [26],100%
same,post-emergence activity against ECHCG,ECHCG [27],90%
